{"source": "patent US20080031968A1", "about": "“Methods for increasing cellular energy expenditure” (priority 2005, published 2008)", "key": {"HSMM [1]": {"system": "HSMM", "test": "cAMP levels in human skeletal muscle myoblasts", "type": "cell-based", "conditions": "1 mM IBMX, 30 minutes", "description": "HSMM were obtained from Cambrex (Walkersville, Md.) and were cultured according to the suppliers instructions. […] For the cAMP measurements, cells were preincubated 12 h in Opti-MEM (Life Technologies, Cergy Pontoise, France), supplemented with 1 mM IBMX. Then medium was changed and cells were incubated for another 1 h in Opti-MEM with 1 mM IBMX, after which the medium was replaced for Opti-MEM with 1 mM IBMX and the indicated compounds. After 30 minutes the cells were lysed for cAMP analysis."}, "C57BL/6J mice": {"system": "C57BL/6J mice", "test": "LXR agonist-induced lipogenesis in C57BL/6J mice with or without CA", "type": "in vivo, mouse", "conditions": "C57BL/6J mice, chow diet, gavage 30 mg/kg", "protocol": "Male C57BL/6J, KK-Ay, and ob/ob (C57BL/6J background) mice, 6-10 weeks of age, were obtained from Elevage Janvier (Le Genest St. Isle, France), CLEA Japan Inc. (Tokyo, Japan), and The Jackson Laboratory (Bar Harbor, Me., USA), respectively. All mice were maintained in a temperature-controlled (23° C.) facility with a 12-hour light/dark cycle and were given free access to food and water. The study protocols were approved by the institutional review boards. The body weight and food intake were measured every second day. The control and high-fat diet was obtained from UAR (Villemoisson sur Orge, France). […] The mice were fasted 4 hours before harvesting blood for subsequent lipid measurements, and tissues for RNA isolation, lipid measurements, and histology.\nMice were gavaged with the LXR agonist T0901317 or vehicle, and the different diets were continued for one more day, after which the mice were sacrificed."}, "TGR5 [2]": {"biological_target": "T1, TGR5 (Homo sapiens, UniProt Q8TDU6)", "T1 construct": "expressed in transfected cells", "T1 sequence (Q8TDU6 1-330)": "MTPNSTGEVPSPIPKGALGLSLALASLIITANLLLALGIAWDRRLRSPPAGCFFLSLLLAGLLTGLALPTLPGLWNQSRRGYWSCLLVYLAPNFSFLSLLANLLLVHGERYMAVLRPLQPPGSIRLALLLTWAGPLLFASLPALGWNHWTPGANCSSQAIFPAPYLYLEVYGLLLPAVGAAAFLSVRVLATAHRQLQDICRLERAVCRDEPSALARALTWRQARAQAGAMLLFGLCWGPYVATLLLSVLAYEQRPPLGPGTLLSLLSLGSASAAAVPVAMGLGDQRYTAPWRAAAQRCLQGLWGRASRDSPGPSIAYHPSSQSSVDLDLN", "test": "cAMP response element (CRE)-luciferase reporter assay with TGR5", "type": "cell-based", "conditions": "cells co-transfected with TGR5 expression plasmid and CRE-driven luciferase reporter", "source_text": "Since a synthetic FXRα agonist was unable to phenocopy the effects of BAs on energy expenditure, we focused our attention on FXRα-independent signaling events stimulated by BAs. […] We used a cAMP response element (CRE)-luciferase reporter assay to confirm that TGR5 is a BA receptor.\nWe used quantitative RT-PCR to measure the expression of D2 and TGR5 mRNAs in selected mouse tissues."}, "BAT cells": {"system": "BAT cells", "test": "Isolated mouse BAT cells, D2 mRNA, D2 activity and cAMP", "type": "cell-based", "protocol": "An OGTT was performed in animals that were fasted overnight. Glucose was administered by gavage at a dose of 2 g/kg. An IPITT was done in 4 h fasted animals. Insulin was injected at a dose of 0.75 U/kg. Glucose quantification was done with the Maxi Kit Glucometer 4 (Bayer Diagnostic, Puteaux, France) or Glucose RTU (bioMérieux Inc., Marcy l'Etoile, France). Plasma insulin concentrations were measured using ELISA (Cristal Chem Inc., Downers Grove, Ill.). Nonesterified fatty acids, triglycerides, ketone bodies, BA and total cholesterol were determined by enzymatic assays (Roche, Mannheim, Germany). cAMP was measured using the cAMP-Screen system (Applied Biosystems, Bedford, Mass.)."}, "HSMM [3]": {"system": "HSMM", "test": "D2 activity in human skeletal muscle myoblasts", "type": "cell-based", "conditions": "16 h incubation", "protocol": "HSMM were obtained from Cambrex (Walkersville, Md.) and were cultured according to the suppliers instructions. D2 activity measurements were performed after a 16 h incubation with the indicated compounds. For the cAMP measurements, cells were preincubated 12 h in Opti-MEM (Life Technologies, Cergy Pontoise, France), supplemented with 1 mM IBMX. Then medium was changed and cells were incubated for another 1 h in Opti-MEM with 1 mM IBMX, after which the medium was replaced for Opti-MEM with 1 mM IBMX and the indicated compounds. After 30 minutes the cells were lysed for cAMP analysis."}, "TGR5 [4]": {"biological_target": "T1, TGR5", "test": "CHO cells transiently expressing TGR5 and pCRE-Luc", "type": "cell-based", "conditions": "different concentrations, almost as much cAMP accumulation as with 10 μM forskolin", "source_text": "These two steroids constitute about 2 percent by weight of gum guggul."}, "HSMM [5]": {"system": "HSMM", "test": "Oxygen consumption and extracellular acidification rate in HSMM", "conditions": "for cellular oxygen consumption: 48 or 72 hours; for extracellular acidification rate: after 72 hours of treatment"}, "[6]": {"system": "mouse primary hepatocytes", "test": "Endogenous SREBP-1c and target gene expression in mouse primary hepatocytes", "type": "cell-based", "protocol": "Hepatocytes were isolated from wild-type male mice 8-10 weeks old. Animals were anesthetized with CO2 and livers were perfused with 40 ml Liver Perfusion Medium (Invitrogen) followed by 30 ml Liver Digestion Medium (Invitrogen), both at a flow rate of 5 ml/min. Isolated hepatocytes were resuspended in DMEM supplemented with 20% (v/v) FCS, 100 units/ml penicillin, and 100 units/ml streptomycin, and placed in plates coated with collagen IV at a density of 1×10^5 cells/cm^2. After a 4-hour incubation at 37° C. in an atmosphere of 5% CO2, the medium was changed to DMEM supplemented with 10% (v/v) FCS, 100 units/ml penicillin, 100 units/ml streptomycin, 0.5 μM dexamethasone (Sigma-Aldrich), and 0.4 μM insulin (Sigma-Aldrich). After 16 hours, the medium was changed into medium supplemented with CDCA and ligands for LXR and RXR. After an additional 18-hour incubation, cells were harvested for RNA isolation.\nTotal RNA was extracted from frozen tissue samples or cells using the RNeasy kit (QIAGEN, Courtaboeuf, France). cDNA was synthesized from total RNA with the SuperScript First-Strand Synthesis System (Invitrogen) and random hexamer primers. The real-time PCR measurement of individual cDNAs was performed using SYBR green dye to measure duplex DNA formation with the LightCycler System (Roche Diagnostics, Meylan, France). The sequences of the primer sets used are available online at http://www-igbmc.ustrasbg.fr/Departments/Dep_V/Dep_VA/Publi/Paper.html."}, "mouse SREBP-1c promoter": {"system": "mouse SREBP-1c promoter", "test": "SREBP-1c promoter luciferase reporter assay in McA-RH7777 cells", "type": "cell-based", "conditions": "McA-RH7777 rat hepatoma cells, LXRα transfection and/or LXR and RXR agonists", "description": "The LXR response elements in pSREBP-1c324-Luc were mutated for promoter analysis using the Quick Change Site-Directed Mutagenesis Kit (Stratagene, La Jolla, Calif., USA).\nThe rat hepatoma cell line McA-RH7777 was obtained from ATCC (Manassas, Va., USA). […] Transfections were performed in 96-well plates using Lipofectamine 2000 (Invitrogen, Cergy Pontoise, France). Each well contained 64 ng luciferase reporter and 4 ng of β-galactosidase expression plasmid. We transfected 16 ng RXRα, 16 ng LXRα, 16 ng LRH-1, 32 ng SHP expression plasmids, or the corresponding empty expression vectors. After 6 hours of incubation with the DNA-lipofectamine complexes, the transfection medium was exchanged for medium with or without the indicated ligands. Ligands for LXR and RXR were dissolved in ethanol or DMSO and added to the cells in DMEM supplemented with 10% lipoprotein-deficient serum. To suppress SREBP-1c activation by processing, leading to feed-forward induction of SREBP-1c expression, the medium used for the SREBP-1c promoter study was also supplemented with 10 μg/ml cholesterol and 1 μg/ml 25-hydroxycholesterol. Luciferase measurements were normalized to β-galactosidase activity."}, "BAT of C57BL/6J mice": {"system": "BAT of C57BL/6J mice", "test": "BAT gene expression by microarray and Q-RT-PCR", "type": "in vivo, mouse", "conditions": "high fat diet mixed with CA or CDCA for 9 days", "description": "For microarray analysis, RNA was isolated from BAT using the RNeasy mini kit (QIAGEN, Courtaboeuf, France). Equal amounts of RNA from mice in each group were pooled (n=3 or 4 mice) and used for cDNA synthesis. After second-strand cDNA synthesis (Life Technologies, Cergy Pontoise, France), in vitro transcription was performed with biotinylated UTP and CTP (Enzo Diagnostics, Farmingdale, N.Y.). Fragmented cRNA samples were hybridized to the Affymetrix MOE430A microarray. The raw data was analyzed using the Microarray Suite Software version 5.0 (MAS5.0, Affymetrix, Santa Clara, Calif.)."}, "humans [7]": {"system": "humans", "conditions": "treatment of cholesterol gallstones; cited from earlier work"}, "humans [8]": {"system": "humans", "conditions": "cited from earlier work"}}, "data": [{"smiles": "C[C@H](CCC(=O)NCCS(=O)(=O)O)[C@H]1CC[C@H]2[C@@H]3[C@H](O)C[C@@H]4C[C@H](O)CC[C@]4(C)[C@H]3CC[C@]12C", "note": "[TCDCA, tauroCDCA]", "values": [{"measurement": "cAMP levels", "setting": "HSMM [1]", "result": "did not increase"}]}, {"smiles": "O=S(=O)(c1ccccc1)N(CC(F)(F)F)c1ccc(C(O)(C(F)(F)F)C(F)(F)F)cc1", "note": "[T0901317]", "values": [{"measurement": "liver weight and serum TGs", "setting": "C57BL/6J mice", "result": "induction"}]}, {"smiles": "C[C@H](CCC(=O)NCCS(=O)(=O)O)[C@H]1CC[C@H]2[C@@H]3[C@H](O)C[C@@H]4C[C@H](O)CC[C@]4(C)[C@H]3C[C@H](O)[C@]12C", "note": "[TCA, taurocholic acid]", "values": [{"measurement": "luciferase expression", "setting": "TGR5 [2]", "result": "increased luciferase expression in a dose-dependent manner"}, {"measurement": "cAMP levels", "setting": "BAT cells; BAT cells", "result": "most effective"}, {"measurement": "D2 mRNA and activity", "setting": "BAT cells; BAT cells from mice fed control or high fat diet", "result": "dose dependently increased"}, {"measurement": "D2 activity", "setting": "HSMM [3]", "result": "significant and dose dependent induction"}, {"measurement": "cAMP levels", "setting": "HSMM [1]", "result": "increased cAMP levels in a dose-dependant fashion"}, {"measurement": "reporter activity", "setting": "TGR5 [4]", "result": "dramatically increased"}, {"measurement": "cellular oxygen consumption", "setting": "HSMM [5]", "result": "elevated"}, {"measurement": "extracellular acidification rate", "setting": "HSMM [5]", "result": "increase"}]}, {"smiles": "C[C@H](CCC(=O)O)[C@H]1CC[C@H]2[C@@H]3[C@H](O)C[C@@H]4C[C@H](O)CC[C@]4(C)[C@H]3CC[C@]12C", "note": "[CDCA, chenodeoxycholic acid]", "values": [{"measurement": "expression of lipogenic target genes of SREBP-1c (SCD-1, AceCS, ME)", "setting": "[6]; RXR and LXR ligands plus CDCA", "result": "decreased likewise"}, {"measurement": "SHP expression", "setting": "[6]; addition of CDCA", "result": "increased"}, {"measurement": "endogenous SREBP-1c expression", "setting": "[6]; induced by RXR and LXR ligands, increasing amounts of CDCA, 18-hour incubation", "result": "decreased dose-dependently"}, {"measurement": "increase of SREBP-1c promoter activity", "setting": "mouse SREBP-1c promoter", "result": "attenuated"}, {"measurement": "genes involved in control of energy expenditure incl. D2 in BAT (microarray)", "setting": "BAT of C57BL/6J mice", "result": "upregulated"}, {"measurement": "cAMP levels", "setting": "HSMM [1]", "result": "increased cAMP levels in a dose-dependant fashion"}, {"measurement": "hypertriglyceridemia", "setting": "humans [7]", "result": "reduce hypertriglyceridemia"}, {"measurement": "hepatotoxicity", "setting": "humans [8]", "result": "significant hepatotoxicity"}, {"measurement": "LDL cholesterol", "setting": "humans [8]; decrease in LDL-R activity", "result": "raise LDL cholesterol"}]}, {"smiles": "N[C@@H](Cc1cc(I)c(Oc2ccc(O)c(I)c2)c(I)c1)C(=O)O", "note": "[T3, 3,5,3′-triiodothyronine]", "values": [{"measurement": "cellular oxygen consumption", "setting": "HSMM [5]", "result": "elevated"}, {"measurement": "extracellular acidification rate", "setting": "HSMM [5]", "result": "increase"}]}]}
